From US20060270631A1, “Methods for the treatment and prevention of angiogenic diseases” (priority 2005, published 2006)
Values joined by “and” are separate entries in the source; they are usually repeats but may differ in a detail not shown here. Equal values may be shown once.

Key:
sphingosine kinase (SK) = assay: Screening assay for inhibitors of SK; format: biochemical, human; details: library screen
Description: An assay for screening for inhibitors of SK has been established (French et al., Cancer Res 63: 5962 (2003)). […] Representative active compounds from four chemotypes of SK inhibitors, designated herein as Compounds I-IV, are shown in FIG. 1.

Pharmacokinetics in mice = format: in vivo, mouse; details: for AUC(0-inf) / Cmax / Tmax / half-life: female, Swiss-Webster, mouse, whole blood, mice
Description: Mice were anesthetized and blood was removed by cardiac puncture at time points ranging from 1 minute to 8 hours. […] Control blood samples were spiked with known amounts of internal standard and analyte to identify compound-specific peaks and to develop standard curves for quantification. Pharmacokinetic parameters were calculated using the WINNONLIN analysis software package (Pharsight).

[1] = tested on: VEGF-induced vascular permeability; assay: VEGF-induced vascular leakage (Miles assay) in nude mice; format: in vivo, mouse; details: FIG. 7B
[2] = tested on: diabetic Sprague-Dawley rats; assay: Retinal vascular permeability in streptozotocin-diabetic rats; format: in vivo, rat; details: 25 or 75 mg/kg IP, 5 days per week, Day 45 to Day 87; inner plexiform and outer nuclear layers
Description: FIG. 9. Effects of ABC 294640 on retinal vascular permeability in diabetic rats. From Day 45 through Day 87, Control (open bars) and Diabetic rats were treated with solvent (shaded bars) or ABC294640 at 25 mg/kg (horizontal-hatched bars) or 75 mg/kg (cross-hatched bars). On Day 87, retinal leakage in each animal was measured. Values represent the mean±sd for 3-5 rats per group.
Male Sprague-Dawley rats weighing 150-175 g were used. Diabetes was produced by intraperitoneal injection of streptozotocin (65 mg/kg in citrate buffer) after overnight fasting. Sham-injected non-diabetic animals were also carried as controls. Blood glucose was measured three days post-injection and animals with blood glucose over 250 mg/dL were used as diabetic rats for the study. Blood glucose levels and body weights were monitored weekly throughout the study. On Day 45, retinal vascular permeability was measured in a group of control and diabetic rats (Antonetti et al., Diabetes 47: 1953 (1998), Barber et al., Invest Ophthalmol Vis Sci 46: 2210 (2005)). […] Sections were dewaxed and viewed with an Olympus OM-2 fluorescence microscope fitted with a Sony CLD video camera. Fluorescence intensities of digital images were measured using Leica Confocal Software (Version 2.61, build 1538, LCS Lite, 2004). […]

female DBA/1 mice = assay: Collagen-Induced Arthritis (CIA) model in mice; format: in vivo, mouse; details: 100 mg/kg orally, Day 12
male Lewis rats = assay: Adjuvant-Induced Arthritis model in rats; format: in vivo, rat; details: Day 10
Description: FIG. 11. Effects of ABC294640 on disease progression in the adjuvant-induced arthritis model in rats. Male Lewis rats were injected subcutaneously with Mycobacterium butyricum, and symptoms of immune reactivity were present after 2 weeks. Responsive rats were randomized into treatment groups (n=8 per group), and received oral daily doses of: solvent alone (0.375% Tween-80); 100 mg/kg ABC294640; 35 mg/kg ABC294640; or 5 mg/kg ABC294640, or intraperitoneal injections of indomethacin (5 mg/kg) every other day. The severity of disease in each animal was quantified by measurement of the hind paw thickness. Panel A. Time course of hind paw arthritic response. Panel B. Final day (Day 10) hind paw thickness measurements. Panel C. Change in paw thickness of respective group versus non-arthritic rats (naive) at Day 10. *,p<0.05; ***, p<0.001 versus solvent alone group.
Adjuvant-induced arthritis is another widely used assay that recapitulates many features of human rheumatoid arthritis, and so is useful in the evaluation of new drug candidates. Age- and weight-matched male Lewis rats (150-170 g) were injected subcutaneously in the tail with 1 mg of Mycobacterium butyricum (Difco, killed dried) suspended in 0.1 ml of light mineral oil. Symptoms of immune reactivity were present after 2 weeks. Responsive rats were randomized into treatment groups, and received oral daily doses (1 ml) of: solvent alone (0.375% Tween-80); 100 mg/kg ABC294640; 35 mg/kg ABC294640; or 5 mg/kg ABC294640, or intraperitoneal injections of indomethacin (5 mg/kg) every other day as a positive control. The severity of disease in each animal was quantified by measurement of the hind paw thickness. As above, a reduction of 30% or greater was considered to be an indication of anti-inflammatory activity in this model.

[3] = tested on: JC murine mammary adenocarcinoma; assay: JC mammary adenocarcinoma syngenic tumor model in Balb/C mice
Description: FIG. 12. […] Balb/c female mice were injected subcutaneously with JC cells suspended in PBS. […] Whole body weight and tumor volume measurement were performed for up to 18 days. *p<0.05. Inset: Averaged body weights of mice from each group during course of study.
FIG. 13. […] Balb/c female mice were injected s.c. with JC cells suspended in PBS.
We determined the antitumor activity of representative SK inhibitors in a syngenic mouse tumor model that uses a transformed murine mammary adenocarcinoma cell line (JC, ATCC Number CRL-2116) and Balb/C mice (Charles River) (Lee et al., Oncol Res 14: 49 (2003)). Animals were housed under 12 hour light/dark cycles, with food and water provided ad libitum. Tumor cells (1×10^6) were implanted subcutaneously, and tumor volume was calculated using the equation: (L×W^2)/2. Upon detection of tumors, mice were randomized into treatment groups.

[4] = tested on: female Swiss-Webster mice; details: mouse, in vivo
Description: (§1) The compounds are soluble to at least 15 mg/ml in 50% dimethylsulfoxide:50% phosphate-buffered saline (DMSO:PBS) for intraperitoneal (IP) administration or Polyethylene glycol-400 (PEG400) for oral dosing.

physchem = details: aqueous with cosolvent or surfactant or cyclodextrin
Description: as §1

endogenous SK = assay: Cellular SK activity in bovine retinal endothelial cells; format: cell-based; details: 4 hours
Description: FIG. 3. Inhibition of cellular SK activity in RECs. Bovine retinal endothelial cells were incubated with 20 μM dimethylsphingosine (DMS) or 25 μg/mL Compound I, Compound II or Compound V (approximately 80 μM for each compound) for 4 hours before the addition of 0.4 μCi of [^3H]sphingosine. After 15 minutes, cells were lysed and extracted with chloroform: methanol. The total amounts of [^3H]sphingosine in the organic phase and [^3H]S1P in the aqueous phase were then determined. Values represent the mean±SD of duplicate samples in a typical experiment.
Cellular S1P formation assay. Cells were grown to confluency in 24-well tissue culture plates and serum-starved for 24 hours as described above. Cells were then treated with 1% DMSO (as the drug vehicle), 20 μM dimethylsphingosine, or the indicated concentration of an SK inhibitor for 4 hours. The cells were then incubated with [^3H]sphingosine for 15 minutes, and the formation of [^3H]S1P was measured as previously described (French et al., Cancer Res 63: 5962 (2003)). In some assays, the cells were serum-starved for 24 hours and then treated with VEGF (50 ng/mL) alone or in the presence of an SK inhibitor for an additional 12 hours. [^3 H]Sphingosine was then added for 15 minutes, and its conversion to [^3H]S1P was measured as indicated above.
A cell-based assay in which the phosphorylation of exogenously added [^3H]sphingosine to [^3H]S1P by endogenous SK can be quantified (French et al., Cancer Res 63: 5962 (2003)) was used to evaluate the effects of test compounds on the activity of SK in intact cells. In this assay, cells are incubated with [^3 H]sphingosine for an appropriate period of time, and then [^3H]sphingosine and [^3H]S1P (formed by endogenous SK activity) are separated by extraction and levels of both species are determined by scintillation counting. We have used a number of cell lines in this assay to confirm that the SK inhibitors are active in multiple intact cell systems. For example, human umbilical vein endothelial cells (HUVECs) are commonly used as a model of human vasculature. […] Similarly, the enzymatic activity of SK in bovine RECs, and its sensitivity to SK inhibitors were assessed. […] Each of inhibitors of SK (Compound I, Compound II and Compound V) was also active against the endogenous SK activity in the bovine RECs.

O=C(NCc1ccncc1)C12CC3CC(C1)CC(c1ccc(Cl)cc1)(C3)C2 [ABC294640]
inhibition of SK (sphingosine kinase (SK)): inhibit SK
blood levels versus IC50 for inhibition of SK activity (Pharmacokinetics in mice; during the entire study (up to 8 hours)): exceeded the IC50
AUC(0-inf) (Pharmacokinetics in mice; IV 50 mg/kg): 56900 ng·h/mL and 137 µM·h
Cmax (Pharmacokinetics in mice; IV 50 mg/kg): 31100 ng/mL and 74 µM
Tmax (Pharmacokinetics in mice; IV 50 mg/kg): 0 h
half-life (Pharmacokinetics in mice; IV 50 mg/kg): 1.4 h
AUC(0-inf) (Pharmacokinetics in mice; Oral 50 mg/kg): 37500 ng·h/mL and 90.1 µM·h
Cmax (Pharmacokinetics in mice; Oral 50 mg/kg): 8000 ng/mL and 19 µM
Tmax (Pharmacokinetics in mice; Oral 50 mg/kg): 0.25 h
half-life (Pharmacokinetics in mice; Oral 50 mg/kg): 4.5 h
VEGF-promoted dye leakage into mouse skin ([1]; 75 mg/kg intraperitoneal): suppressed
VEGF-promoted dye leakage into mouse skin ([1]; 100 mg/kg oral gavage): suppressed
FITC-BSA leakage into the retina versus untreated diabetic rats [2]: substantially reduced
reduction in clinical score versus vehicle (female DBA/1 mice; 6 days per week): 67%
reduction in the increase in hind paw thickness versus vehicle (female DBA/1 mice; 6 days per week): 90%
histologic damage of tibiotarsal joints (female DBA/1 mice): significantly reduced
reduction in the arthritic response (hind paw thickness) (male Lewis rats; 5 mg/kg oral daily): 13%
reduction in the arthritic response (hind paw thickness) (male Lewis rats; 35 mg/kg oral daily): 42%
reduction in the arthritic response (hind paw thickness) (male Lewis rats; 100 mg/kg oral daily): 76%
inhibition of tumor growth ([3]; 100 mg/kg orally on odd days, PEG400): 69%
therapeutic index (nontoxic dose/antitumor activity) ([3]; female, Balb/c, mouse, in vivo): greater than 30
toxicity to the tumor-bearing mice ([3]; mouse, in vivo): without toxicity
EC50 for inhibition of tumor growth ([3]; oral, odd days, dose-response, FIG. 13): approximately 35 mg/kg
nontoxic dose [4]: 1000 mg/kg
dose with no immediate or delayed toxicity, acute ([4]; ip): at least 50 mg/kg
dose without noticeable toxicity ([4]; po): at least 100 mg/kg
solubility (physchem): ≥ 15 mg/mL

O=C(NN=Cc1c(O)ccc2ccccc12)c1cc(-c2ccc3ccccc3c2)n[nH]1 [Compound I]
endogenous SK activity in bovine RECs (endogenous SK; 25 μg/mL (approximately 80 μM)): active

O=C1C(=Cc2ccc(O)c(O)c2)Oc2ccccc21 [Compound V]
endogenous SK activity in bovine RECs (endogenous SK; 25 μg/mL (approximately 80 μM)): active

CCCCCCCCCCCCC/C=C/[C@@H](O)[C@H](CO)N(C)C [DMS, dimethylsphingosine, reference compound]
endogenous SK activity in bovine RECs (endogenous SK; 20 μM, positive control): inhibition of SK
